The Kinase Knowledgebase extract (Sharma et al. 2016)

What was measured:
EGFR (human) = EGFR (human) (UniProt P00533); conditions: a431
[1] = target: EGFR (human), P00533 [WT]; conditions: hl-7702
[2] = target: EGFR (human), P00533 [Inhibition of Proliferation of EGFR(WT, k-Ras mutation) in A549 Cells]
[3] = target: EGFR (Human), P00533 [T790M/L858R]; conditions: h1975
Sequence of EGFR (Human), P00533 [T790M/L858R] (P00533 whole entry T790M/L858R, looked up): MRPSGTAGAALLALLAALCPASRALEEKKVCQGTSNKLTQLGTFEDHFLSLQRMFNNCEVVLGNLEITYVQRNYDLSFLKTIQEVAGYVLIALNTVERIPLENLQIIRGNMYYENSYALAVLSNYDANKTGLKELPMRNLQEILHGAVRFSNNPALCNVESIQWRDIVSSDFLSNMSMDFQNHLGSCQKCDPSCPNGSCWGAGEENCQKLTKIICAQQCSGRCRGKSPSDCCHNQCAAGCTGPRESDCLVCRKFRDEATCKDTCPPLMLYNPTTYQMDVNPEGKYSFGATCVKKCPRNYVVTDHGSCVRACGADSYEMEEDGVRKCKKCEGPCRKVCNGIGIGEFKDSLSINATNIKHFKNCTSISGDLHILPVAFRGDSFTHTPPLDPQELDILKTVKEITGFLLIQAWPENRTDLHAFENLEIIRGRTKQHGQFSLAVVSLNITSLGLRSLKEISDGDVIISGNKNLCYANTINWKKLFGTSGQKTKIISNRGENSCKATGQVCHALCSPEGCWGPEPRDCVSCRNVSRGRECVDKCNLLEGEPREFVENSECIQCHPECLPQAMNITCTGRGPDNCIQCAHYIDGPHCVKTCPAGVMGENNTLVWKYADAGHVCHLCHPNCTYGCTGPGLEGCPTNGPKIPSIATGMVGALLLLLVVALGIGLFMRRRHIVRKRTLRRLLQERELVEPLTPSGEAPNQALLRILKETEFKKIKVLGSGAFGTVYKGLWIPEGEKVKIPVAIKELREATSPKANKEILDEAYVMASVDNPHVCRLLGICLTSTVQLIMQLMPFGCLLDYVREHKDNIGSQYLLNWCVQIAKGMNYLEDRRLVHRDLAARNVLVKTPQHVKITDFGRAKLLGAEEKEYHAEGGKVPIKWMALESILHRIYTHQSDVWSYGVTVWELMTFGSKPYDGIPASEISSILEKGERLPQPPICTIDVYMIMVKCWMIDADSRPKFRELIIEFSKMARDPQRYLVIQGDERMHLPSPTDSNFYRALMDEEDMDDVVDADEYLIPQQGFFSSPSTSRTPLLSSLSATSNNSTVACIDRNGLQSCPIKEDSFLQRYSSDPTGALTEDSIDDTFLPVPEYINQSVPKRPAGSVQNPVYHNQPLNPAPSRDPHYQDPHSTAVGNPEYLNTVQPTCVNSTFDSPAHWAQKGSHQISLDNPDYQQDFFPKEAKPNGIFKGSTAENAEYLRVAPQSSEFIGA

Sequence of EGFR (human) (P00533 whole entry, looked up): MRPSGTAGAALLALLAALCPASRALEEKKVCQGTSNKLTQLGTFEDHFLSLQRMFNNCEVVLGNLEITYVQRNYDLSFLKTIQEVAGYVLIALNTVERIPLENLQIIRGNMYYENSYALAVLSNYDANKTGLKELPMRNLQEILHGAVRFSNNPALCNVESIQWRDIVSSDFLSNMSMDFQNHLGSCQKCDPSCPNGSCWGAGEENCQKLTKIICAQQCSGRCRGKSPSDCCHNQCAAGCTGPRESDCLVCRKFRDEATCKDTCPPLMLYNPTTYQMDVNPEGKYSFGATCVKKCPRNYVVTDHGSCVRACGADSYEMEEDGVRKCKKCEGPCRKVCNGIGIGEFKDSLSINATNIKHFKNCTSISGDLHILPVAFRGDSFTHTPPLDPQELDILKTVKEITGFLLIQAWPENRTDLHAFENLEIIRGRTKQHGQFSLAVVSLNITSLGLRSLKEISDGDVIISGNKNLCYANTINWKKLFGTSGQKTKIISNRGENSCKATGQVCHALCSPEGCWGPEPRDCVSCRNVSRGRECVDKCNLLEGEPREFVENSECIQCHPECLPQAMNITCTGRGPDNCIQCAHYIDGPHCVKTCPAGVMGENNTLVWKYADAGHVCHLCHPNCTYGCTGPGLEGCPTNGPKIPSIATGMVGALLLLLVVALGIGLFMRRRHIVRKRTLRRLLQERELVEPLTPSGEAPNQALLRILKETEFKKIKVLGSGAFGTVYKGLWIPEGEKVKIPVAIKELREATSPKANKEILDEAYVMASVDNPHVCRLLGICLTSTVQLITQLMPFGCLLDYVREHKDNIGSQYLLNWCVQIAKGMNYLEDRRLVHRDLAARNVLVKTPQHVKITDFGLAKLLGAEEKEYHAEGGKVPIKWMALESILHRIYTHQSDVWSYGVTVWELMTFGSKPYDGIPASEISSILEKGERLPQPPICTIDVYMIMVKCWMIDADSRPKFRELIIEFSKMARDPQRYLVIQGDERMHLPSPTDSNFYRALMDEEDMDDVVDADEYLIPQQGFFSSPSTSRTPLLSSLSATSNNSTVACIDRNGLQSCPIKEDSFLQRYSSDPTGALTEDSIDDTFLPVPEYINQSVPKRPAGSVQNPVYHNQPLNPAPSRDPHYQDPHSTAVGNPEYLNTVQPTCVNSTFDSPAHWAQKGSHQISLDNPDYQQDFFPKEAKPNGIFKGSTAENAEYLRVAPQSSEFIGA
Sequence of EGFR (human), P00533 [WT] (P00533 whole entry, looked up): as above
Sequence of EGFR (human), P00533 [Inhibition of Proliferation of EGFR(WT, k-Ras mutation) in A549 Cells] (P00533 whole entry, looked up, stated change not applied): as the sequence (P00533 whole entry, looked up) above

Row | Compound | IC50 (EGFR (human)) [µM] | IC50 [1] [µM] | IC50 [2] [µM] | IC50 [3] [µM]
1 | C=CC(=O)Nc1cccc(N2C(=O)N(C)Cc3cnc(Nc4ccc(N5CCN(C)CC5)cc4F)nc32)c1 | > 10 |  |  | 
2 | C=CC(=O)Nc1cccc(N2C(=O)N(C)Cc3cnc(Nc4ccc(N5CCN(C)CC5)cc4C)nc32)c1 |  | > 10 |  | 
3 | C=CC(=O)Nc1cccc(N2C(=O)N(C)Cc3cnc(NC)nc32)c1 | > 10 | > 10 | > 20 | 
4 | C=CC(=O)Nc1cccc(N2C(=O)N(C)Cc3cnc(Nc4ccc(N5CCC(N(C)C)CC5)cc4OC)nc32)c1 |  | > 10 |  | 
5 | CCC(=O)Nc1cccc(N2C(=O)N(C)Cc3cnc(Nc4ccc(N5CCN(C)CC5)cc4OC)nc32)c1 | > 10 | > 10 | > 30 | > 20
6 | C=CC(=O)Nc1cccc(N2C(=O)N(C(C)C)Cc3cnc(Nc4ccc(N5CCN(C)CC5)cc4OC)nc32)c1 |  | > 10 |  | 
7 | C=CC(=O)Nc1cccc(N2C(=O)N(C)Cc3cnc(Nc4ccc(N5CCN(C)CC5)cc4OCC)nc32)c1 |  | > 10 |  | 
8 | C=CC(=O)Nc1cccc(N2C(=O)N(C)Cc3cnc(Nc4ccccc4)nc32)c1 |  | > 10 |  | 
9 | C=CC(=O)Nc1cccc(N2C(=O)N(c3ccc(Oc4ccccc4)cc3)Cc3cnc(Nc4ccc(N5CCN(C)CC5)cc4OC)nc32)c1 |  | > 10 |  | 
10 | C=CC(=O)Nc1cccc(N2C(=O)N(C)Cc3cnc(Nc4ccc(N5CCOCC5)cc4OC)nc32)c1 | > 10 | > 10 |  | 
11 | C=CC(=O)Nc1cccc(N2C(=O)N(C)Cc3cnc(Nc4ccc(N5CCN(C)CC5)cc4OC(C)C)nc32)c1 |  | > 10 |  | 
12 | C=CC(=O)Nc1cccc(N2C(=O)N(C)Cc3cnc(Nc4ccc(N5CCN(C)CC5)cc4OC)nc32)c1 |  | > 10 |  | 
13 | COc1cc(N2CCN(C)CC2)ccc1Nc1ncc2c(n1)N(c1cccc(N)c1)C(=O)N(C)C2 | > 10 | > 10 |  | > 20
14 | C=CC(=O)Nc1cccc(N2C(=O)N(C)Cc3cnc(Nc4ccc(N5CCCCC5)cc4OC)nc32)c1 |  | > 10 |  | 
15 | C=CC(=O)Nc1cccc(N2C(=O)N(C)Cc3cnc(Nc4ccc(N(C)C)cc4OC)nc32)c1 |  | > 10 | > 20 | 
16 | C=CC(=O)Nc1cccc(N2C(=O)N(C)Cc3cnc(Nc4ccc(N5CCCN(C)CC5)cc4OC)nc32)c1 |  | > 10 | > 20 | 
